Article PMC9977887, “Crocodile defensin (CpoBD13) antifungal activity via pH-dependent phospholipid targeting and membrane disruption” (Nature Communications, 2023)
Where no end group is shown, it is not given here.

Assays:
[1] = Calcein-encapsulated liposome lysis assay; assay type: biochemical
Protocol: (§1) Liposomes were prepared using natural chicken egg L-α-phophatidylcholine and L-α-phosphatidic acid dissolved in chloroform (Avanti Polar Lipids), and liposome pulldowns (at pH 7.4) and calcein-encapsulated liposome lysis assays were performed as previously described. For liposome pulldowns performed at pH 5.5, the same protocol was used with minor variations. The desiccated lipid films were resuspended in 20 mM MES pH 7.4 and were washed in the same buffer during the centrifugation process. After the final wash step, the liposome pellets were resuspended in 20 mM MES pH 5.5 and incubated with CpoBD13 or mutants thereof (also prepared in the same acidic buffer).

[2] = test system: U937 cells; test: MTT/MTS cell viability assay; assay type: cell-based, human; details: 48 h, at the assessed concentrations
Source text: (§2) Human epithelial cervical cancer (HeLa, ATCC, CCL-2), prostate cancer (PC3, ATCC, CRL-1435) and histiocytic lymphoma (U937, ATCC, CRL-1593.2) cells were obtained from the American Type Culture Collection (Gaithersburg, Maryland) and cultured in RPMI-1640 medium (Thermo Fisher Scientific, Waltham, MA) supplemented with 5–10% (v/v) foetal bovine serum (FBS), 100 U/mL penicillin and 100 U/mL streptomycin (Invitrogen, Carlsbad, CA). Adult human dermal fibroblasts (AHDF, Lonza, CC-2511) cells were obtained from Lonza (Basel, Switzerland) and cultured in Dulbecco’s Modified Eagle Medium (DMEM) (Thermo Fisher Scientific) supplemented with 10% (v/v) FBS, 100 U/mL penicillin and 100 U/mL streptomycin. Human umbilical vein epithelial (HUVEC, Lonza, CC-2519) cells were obtained from Lonza and cultured in EBM-2 medium supplemented with EGM-2 SingleQuots (Lonza). All cell lines were maintained at 37 °C in a humidified incubator with 5% CO2.
(§3) Cell viability assays were performed using MTT/MTS as previously described[8].

[3] = Liposome pulldown; assay type: binding; details: for Fraction of total protein (%), bound fraction: pH 5.5 (20 mM MES); for Fraction of total protein (%), bound fraction / Fraction of total protein (%), Bound: 1 µg defensin
Protocol: as §1

[4] = test system: PC3 cells; test: MTT/MTS cell viability assay; assay type: cell-based, human; details: 48 h, at the assessed concentrations
Source text: as §2, §3

[5] = test system: HeLa cells; test: MTT/MTS cell viability assay; assay type: cell-based, human; details: 48 h, at the assessed concentrations
Source text: as §2, §3

[6] = test system: AHDF cells
Source text: as §2, §3

[7] = PC only liposomes, pH 7.4, replicate 1
[8] = PC only liposomes, pH 7.4, replicate 2
[9] = PC only liposomes, pH 7.4, replicate 3
[10] = PC:PA 95:5 liposomes, pH 7.4, replicate 1
[11] = PC:PA 95:5 liposomes, pH 7.4, replicate 2
[12] = PC:PA 95:5 liposomes, pH 7.4, replicate 3

## CpoBD13: saltwater crocodile β-defensin 13, histidine-rich, three disulphide bonds, recombinantly expressed in Pichia pastoris (NGSYYSTLQCRNNHGHCRRLCFHGEQWIGNCNGRHQHCCK; disulfide (positions not given here); also: three disulphide bonds, pairings not given here)
[1]; 20 µM, 30 min, calcein release
  lysis of PC:PA liposomes relative to PC only liposomes: significant increase in the lysis
[1]; PC liposomes, replicate 1
  Lysis (%): 54.3884%
[1]; PC liposomes, replicate 2
  Lysis (%): 55.3559%
[1]; PC liposomes, replicate 3
  Lysis (%): 54.0992%
[1]; PC:PA liposomes, replicate 1
  Lysis (%): 67.3935%
[1]; PC:PA liposomes, replicate 2
  Lysis (%): 66.6111%
[1]; PC:PA liposomes, replicate 3
  Lysis (%): 65.2527%
[1]; PC:PA, 20 µM, 0 min, replicate 1
  Lysis (%): 25.7371%
[1]; PC:PA, 20 µM, 0 min, replicate 2
  Lysis (%): 19.5617%
[1]; PC:PA, 20 µM, 0 min, replicate 3
  Lysis (%): 31.0288%
[1]; PC:PA, 20 µM, 2 min, replicate 1
  Lysis (%): 44.3847%
[1]; PC:PA, 20 µM, 2 min, replicate 2
  Lysis (%): 47.8762%
[1]; PC:PA, 20 µM, 2 min, replicate 3
  Lysis (%): 47.362%
[1]; PC:PA, 20 µM, 4 min, replicate 1
  Lysis (%): 50.7757%
[1]; PC:PA, 20 µM, 4 min, replicate 2
  Lysis (%): 55.3375%
[1]; PC:PA, 20 µM, 4 min, replicate 3
  Lysis (%): 52.3336%
[1]; PC:PA, 20 µM, 6 min, replicate 1
  Lysis (%): 56.1428%
[1]; PC:PA, 20 µM, 6 min, replicate 2
  Lysis (%): 57.6724%
[1]; PC:PA, 20 µM, 6 min, replicate 3
  Lysis (%): 56.2525%
[1]; PC:PA, 20 µM, 8 min, replicate 1
  Lysis (%): 57.9433%
[1]; PC:PA, 20 µM, 8 min, replicate 2
  Lysis (%): 61.2343%
[1]; PC:PA, 20 µM, 8 min, replicate 3
  Lysis (%): 57.4403%
[1]; PC:PA, 20 µM, 10 min, replicate 1
  Lysis (%): 60.1091%
[1]; PC:PA, 20 µM, 10 min, replicate 2
  Lysis (%): 61.4149%
[1]; PC:PA, 20 µM, 10 min, replicate 3
  Lysis (%): 58.1894%
[1]; PC:PA, 20 µM, 12 min, replicate 1
  Lysis (%): 61.5771%
[1]; PC:PA, 20 µM, 12 min, replicate 2
  Lysis (%): 62.8368%
[1]; PC:PA, 20 µM, 12 min, replicate 3
  Lysis (%): 59.7071%
[1]; PC:PA, 20 µM, 14 min, replicate 1
  Lysis (%): 62.1444%
[1]; PC:PA, 20 µM, 14 min, replicate 2
  Lysis (%): 63.0568%
[1]; PC:PA, 20 µM, 14 min, replicate 3
  Lysis (%): 60.7639%
[1]; PC:PA, 20 µM, 16 min, replicate 1
  Lysis (%): 64.0158%
[1]; PC:PA, 20 µM, 16 min, replicate 2
  Lysis (%): 63.5735%
[1]; PC:PA, 20 µM, 16 min, replicate 3
  Lysis (%): 61.3601%
[1]; PC:PA, 20 µM, 18 min, replicate 1
  Lysis (%): 65.2175%
[1]; PC:PA, 20 µM, 18 min, replicate 2
  Lysis (%): 63.6472%
[1]; PC:PA, 20 µM, 18 min, replicate 3
  Lysis (%): 61.6924%
[1]; PC:PA, 20 µM, 20 min, replicate 1
  Lysis (%): 64.1335%
[1]; PC:PA, 20 µM, 20 min, replicate 2
  Lysis (%): 65.2803%
[1]; PC:PA, 20 µM, 20 min, replicate 3
  Lysis (%): 62.4881%
[1]; PC:PA, 20 µM, 22 min, replicate 1
  Lysis (%): 64.7756%
[1]; PC:PA, 20 µM, 22 min, replicate 2
  Lysis (%): 65.3585%
[1]; PC:PA, 20 µM, 22 min, replicate 3
  Lysis (%): 63.4838%
[1]; PC:PA, 20 µM, 24 min, replicate 1
  Lysis (%): 65.4459%
[1]; PC:PA, 20 µM, 24 min, replicate 2
  Lysis (%): 66.2461%
[1]; PC:PA, 20 µM, 24 min, replicate 3
  Lysis (%): 64.0406%
[1]; PC:PA, 20 µM, 26 min, replicate 1
  Lysis (%): 65.9416%
[1]; PC:PA, 20 µM, 26 min, replicate 2
  Lysis (%): 66.5138%
[1]; PC:PA, 20 µM, 26 min, replicate 3
  Lysis (%): 64.3943%
[1]; PC:PA, 20 µM, 28 min, replicate 1
  Lysis (%): 66.2501%
[1]; PC:PA, 20 µM, 28 min, replicate 2
  Lysis (%): 65.4475%
[1]; PC:PA, 20 µM, 28 min, replicate 3
  Lysis (%): 64.7127%
[1]; PC:PA, 20 µM, 30 min, replicate 1
  Lysis (%): 67.3935%
[1]; PC:PA, 20 µM, 30 min, replicate 2
  Lysis (%): 66.6111%
[1]; PC:PA, 20 µM, 30 min, replicate 3
  Lysis (%): 65.2527%
[1]; PC, 20 µM, 0 min, replicate 1
  Lysis (%): 15.1234%
[1]; PC, 20 µM, 0 min, replicate 2
  Lysis (%): 15.1242%
[1]; PC, 20 µM, 0 min, replicate 3
  Lysis (%): 13.8859%
[1]; PC, 20 µM, 2 min, replicate 1
  Lysis (%): 39.0447%
[1]; PC, 20 µM, 2 min, replicate 2
  Lysis (%): 32.4816%
[1]; PC, 20 µM, 2 min, replicate 3
  Lysis (%): 30.5639%
[1]; PC, 20 µM, 4 min, replicate 1
  Lysis (%): 45.2997%
[1]; PC, 20 µM, 4 min, replicate 2
  Lysis (%): 38.3127%
[1]; PC, 20 µM, 4 min, replicate 3
  Lysis (%): 36.68%
[1]; PC, 20 µM, 6 min, replicate 1
  Lysis (%): 48.9071%
[1]; PC, 20 µM, 6 min, replicate 2
  Lysis (%): 41.9281%
[1]; PC, 20 µM, 6 min, replicate 3
  Lysis (%): 41.2305%
[1]; PC, 20 µM, 8 min, replicate 1
  Lysis (%): 49.7649%
[1]; PC, 20 µM, 8 min, replicate 2
  Lysis (%): 44.0474%
[1]; PC, 20 µM, 8 min, replicate 3
  Lysis (%): 43.6445%
[1]; PC, 20 µM, 10 min, replicate 1
  Lysis (%): 51.7674%
[1]; PC, 20 µM, 10 min, replicate 2
  Lysis (%): 44.7293%
[1]; PC, 20 µM, 10 min, replicate 3
  Lysis (%): 45.2138%
[1]; PC, 20 µM, 12 min, replicate 1
  Lysis (%): 52.4795%
[1]; PC, 20 µM, 12 min, replicate 2
  Lysis (%): 46.5217%
[1]; PC, 20 µM, 12 min, replicate 3
  Lysis (%): 46.4513%
[1]; PC, 20 µM, 14 min, replicate 1
  Lysis (%): 52.8236%
[1]; PC, 20 µM, 14 min, replicate 2
  Lysis (%): 47.6803%
[1]; PC, 20 µM, 14 min, replicate 3
  Lysis (%): 47.9678%
[1]; PC, 20 µM, 16 min, replicate 1
  Lysis (%): 54.9403%
[1]; PC, 20 µM, 16 min, replicate 2
  Lysis (%): 49.0986%
[1]; PC, 20 µM, 16 min, replicate 3
  Lysis (%): 49.0311%
[1]; PC, 20 µM, 18 min, replicate 1
  Lysis (%): 53.0929%
[1]; PC, 20 µM, 18 min, replicate 2
  Lysis (%): 50.179%
[1]; PC, 20 µM, 18 min, replicate 3
  Lysis (%): 50.039%
[1]; PC, 20 µM, 20 min, replicate 1
  Lysis (%): 53.041%
[1]; PC, 20 µM, 20 min, replicate 2
  Lysis (%): 50.8527%
[1]; PC, 20 µM, 20 min, replicate 3
  Lysis (%): 51.0255%
[1]; PC, 20 µM, 22 min, replicate 1
  Lysis (%): 54.0904%
[1]; PC, 20 µM, 22 min, replicate 2
  Lysis (%): 52.2587%
[1]; PC, 20 µM, 22 min, replicate 3
  Lysis (%): 51.6328%
[1]; PC, 20 µM, 24 min, replicate 1
  Lysis (%): 54.3794%
[1]; PC, 20 µM, 24 min, replicate 2
  Lysis (%): 53.0954%
[1]; PC, 20 µM, 24 min, replicate 3
  Lysis (%): 52.0331%
[1]; PC, 20 µM, 26 min, replicate 1
  Lysis (%): 55.6275%
[1]; PC, 20 µM, 26 min, replicate 2
  Lysis (%): 53.8088%
[1]; PC, 20 µM, 26 min, replicate 3
  Lysis (%): 52.9179%
[1]; PC, 20 µM, 28 min, replicate 1
  Lysis (%): 53.4363%
[1]; PC, 20 µM, 28 min, replicate 2
  Lysis (%): 55.2629%
[1]; PC, 20 µM, 28 min, replicate 3
  Lysis (%): 53.0065%
[1]; PC, 20 µM, 30 min, replicate 1
  Lysis (%): 54.3884%
[1]; PC, 20 µM, 30 min, replicate 2
  Lysis (%): 55.3559%
[1]; PC, 20 µM, 30 min, replicate 3
  Lysis (%): 54.0992%
[2]
  effect on cell viability: did not affect the viability
[3]; PC only liposomes, replicate 1
  Fraction of total protein (%), bound fraction: 18.4161%
[3]; PC only liposomes, replicate 2
  Fraction of total protein (%), bound fraction: 18.4773%
[3]; PC only liposomes, replicate 3
  Fraction of total protein (%), bound fraction: 29.8053%
[3]; [7]
  Fraction of total protein (%), Bound: 12.3509%
  Fraction of total protein (%), Unbound: 82.3399%
[3]; [8]
  Fraction of total protein (%), Bound: 1.776%
  Fraction of total protein (%), Unbound: 73.2719%
[3]; [9]
  Fraction of total protein (%), Bound: 33.499%
  Fraction of total protein (%), Unbound: 23.4493%
[3]; PC:PA 95:5, pH 7.4
  binding to PA-enriched liposomes: preferentially bound
[3]; PC:PA 95:5 liposomes, replicate 1
  Fraction of total protein (%), bound fraction: 88.2406%
[3]; PC:PA 95:5 liposomes, replicate 2
  Fraction of total protein (%), bound fraction: 92.9019%
[3]; PC:PA 95:5 liposomes, replicate 3
  Fraction of total protein (%), bound fraction: 89.3441%
[3]; [10]
  Fraction of total protein (%), Bound: 40.526%
  Fraction of total protein (%), Unbound: 36.1151%
[3]; [11]
  Fraction of total protein (%), Bound: 42.0716%
  Fraction of total protein (%), Unbound: 13.782%
[3]; [12]
  Fraction of total protein (%), Bound: 52.0773%
  Fraction of total protein (%), Unbound: 17.5375%
[3]; pH 7.4
  binding to PC only liposomes: negligible binding
[4]
  effect on cell viability: did not affect the viability
[5]
  effect on cell viability: did not affect the viability
[6]
  effect on cell viability: did not affect the viability
